Assays:
[1] = system: buffaloes; test: Example 3: vinegar, dilute acetic acid or acidified sodium acetate, no control group, buffaloes
Description: (§1) The first study was conducted in a population primarily comprising cows and buffaloes. […] Equal number of animals were used in the standard/control group for comparison. The animals were in the study group were allowed to undergo one insemination. Thereafter, i.e. within 35-50 minutes, the material prepared according to the process described in Example 1 was administered to the animals in the study group. The animals in the control/standard group were not subject to administration of any material. Mating or insemination was not controlled. All the animals were allowed to move freely in their usual environment and were kept on normal diet. Their behavior and temperature/temperament especially of the study group. was monitored.
(§2) These animals were administered vinegar, dilute acetic acid, and sodium acetate solution in acidic pH separately.

[2] = system: cows; test: Example 3: vinegar, dilute acetic acid or acidified sodium acetate, no control group, cows
Description: as §1, §2

[3] = system: cows and buffaloes; test: Example 3: totals for cows and buffaloes together
Description: as §1, §2

Structure (SMILES)	Animals not conceived [1]	No. of Miscarriages [1]	OFFSPRING Females [1]	OFFSPRING Males [1]	OFFSPRING Females ([2]; cows, no control group)	OFFSPRING Males ([2]; cows, no control group)	Animals not conceived ([2]; female, cows, in vivo)	No. of Miscarriages ([2]; in vivo)	female offsprings delivered ([3]; cows and buffaloes together)	share of female offsprings ([3]; cows and buffaloes together)	animals that did not conceive ([3]; female, cows and buffaloes, in vivo)	animals that reported miscarriage ([3]; in vivo)	Animals not conceived ([2]; cows, no control group)	No. of Miscarriages ([2]; cows, no control group)	animals that did not conceive ([3]; cows and buffaloes together)
CC(=O)O [Acetic Acid dilute, acetic acid]	3	Nil	11	Nil	6	Nil	2	Nil	17	100%	5	no animals reported miscarriage			
CC(=O)[O-].[Na+] [Sodium Acetate Acidified, sodium acetate]	2	Nil	8	Nil	4	Nil			12	100%			1	Nil	3
